Data published in patent US7208266B2, “Endogenous coagulation activator compounds —use in exploring endogenous coagulation” (Societe Diagnostica-Stago, priority 2001, dated 2007).

Columns and labels:
Format in all cases: biochemical
endogenous coagulation [1] = assay: APTT coagulation time, reagents from amides or esters of gallic acid (Example 2); conditions: for Coagulation time, CCN / Coagulation time, CCP / Coagulation time, Heparins Batch 0811 / Coagulation time, Lupus Batch 021 / Coagulation time, Pool N LIK 800 / Coagulation time, Heparins Batch 1706: gallic acid derivative 100 μM
Text: Thus, the invention also concerns a method for measuring the activated partial thromoboplastin time (APTT) comprising the steps of: • bringing a platelet-depleted plasma sample into contact with compounds or compositions in accordance with the invention, in the presence of substitutes for the phospholipids of the platelet membrane, under conditions that allow activation of the endogenous coagulation pathway; • adding Ca^2+ ions in a quantity equivalent to the quantity of these ions that have been complexed in the plasma sample; • measuring the time required to transform fibrinogen into fibrin.
In particular, within the context of carrying out the above method, the plasma sample is constituted by a platelet-depleted plasma and a coagulation activator is incubated with the plasma for a period of about 2 to 5 minutes, at 37° C. The phospholipid membrane substitutes are either added from the start of the reaction, or mixed with the activator, or added individually during the reaction.
Then the calcium ions are added, for example in the form of calcium chloride in a concentration in the range 20 mM to 25 mM. The time required for fibrin formation is then measured.
In the next example, the coagulation times for different plasmas were determined from APTT reagents obtained from amides or esters of gallic acid. • normal plasmas=pool of equivalent quantities of plasmas from normal subjects; • CCN=coag. control normal: control plasma, normal level; • CCP=coag. control patho: control plasma, disease level; • heparins=plasmas from patient receiving an anticoagulating treatment based on non-fractionated heparin in the form of sodium or calcium salts; • lupus=plasma from a patient presenting with Lupus anticoagulant Syndrome; • def.f VIIIc=plasma from a patient presenting with a f VIIIc deficit (haemophilia A).

endogenous coagulation [2] = assay: as above; conditions: gallic acid derivative 100 μM
endogenous coagulation [3] = assay: APTT coagulation time versus ethylene glycol gallate concentration (Example 6)
Procedure: The coagulating activity of an APTT reagent requires the joint action of two active principles: • a molecule activating the contact phase of the endogenous pathway. In fact, this was ethylene glycol gallate activated by heating to 80° C.; • a substitute for the phospholipids of the platelet membrane, cephaline, obtained by extracting rabbit brains with chloroform;
Optimum activity of the APTT reagent thus constituted depends on the concentrations of ethylene glycol gallate and cephaline.
The following tables show the results obtained for representative plasmas for different disorders and for some controls.

endogenous coagulation [4] = assay: APTT coagulation time, activation kinetics of ethylene glycol gallate heated at 80° C. (Example 3); conditions: 500 μM in solution buffered to pH 7.00, after heating for 24 hours at 80° C.
Procedure: After heating for 24 hours at 80° C., 500 μM of ethylene glycol gallate in solution buffered to a pH of 7.00 became active in an APTT coagulation test.
The procoagulating activity of the ethylene glycol gallate solution was compared with that of a reference reagent: CK-PREST, an APTT reagent in which the activator is kaolin. The instrument used to measure the coagulation time was an automated STA Diagnostica Stago haemostasis instrument (series n° 307).
The test plasmas were quality control plasmas:
CCN=coag control normal; CCP=coag control patho, batch n° 980901.
APTT reagent produced=ethylene glycol gallate, 500 μM, oxidised at 80° C.+Tricine, […], pH 7.00+cephaline (substitute for platelet phospholipids).

[5] = Ethylene Glycol gallate 1000 μM

N[C@@H](CO)C(=O)O [H2N—CH—(CH2OH)—COOH]
Coagulation time, CCN (endogenous coagulation [1]): 210.9 s
Coagulation time, CCP (endogenous coagulation [1]): 189.3 s
Coagulation time, Heparins Batch 0811 (endogenous coagulation [1]): >300.0 s
Coagulation time, Lupus Batch 021 (endogenous coagulation [1]): 232.6 s
Coagulation time, Pool N LIK 800 (endogenous coagulation [1]): 245.0 s
Coagulation time, f VII def 25% (endogenous coagulation [2]): 153.0 s

O=C(OCCO)c1cc(O)c(O)c(O)c1 [ethylene glycol gallate]
Coagulation time Control batch n° 80901 Normal (endogenous coagulation [3]; Ethylene Glycol gallate 10 μM): 130.6 s
Coagulation time Control batch n° 80901 Path (endogenous coagulation [3]; Ethylene Glycol gallate 10 μM): >140.0 s
Coagulation time Plasma (LA) MA 030 (endogenous coagulation [3]; Ethylene Glycol gallate 10 μM): >140.0 s
Coagulation time Plasma def f VIIIc (endogenous coagulation [3]; Ethylene Glycol gallate 10 μM): 121.9 s
Coagulation time Plasmas Heparins Batch 1635 (endogenous coagulation [3]; Ethylene Glycol gallate 10 μM): >140.0 s
Coagulation time Plasmas Heparins Batch 1726 (endogenous coagulation [3]; Ethylene Glycol gallate 10 μM): >140.0 s
Coagulation time Control batch n° 80901 Normal (endogenous coagulation [3]; Ethylene Glycol gallate 25 μM): 124.5 s
Coagulation time Control batch n° 80901 Path (endogenous coagulation [3]; Ethylene Glycol gallate 25 μM): 103.3 s
Coagulation time Plasma (LA) MA 030 (endogenous coagulation [3]; Ethylene Glycol gallate 25 μM): 103.3 s
Coagulation time Plasma def f VIIIc (endogenous coagulation [3]; Ethylene Glycol gallate 25 μM): 73.1 s
Coagulation time Plasmas Heparins Batch 1635 (endogenous coagulation [3]; Ethylene Glycol gallate 25 μM): >140.0 s
Coagulation time Plasmas Heparins Batch 1726 (endogenous coagulation [3]; Ethylene Glycol gallate 25 μM): >140.0 s
Coagulation time Control batch n° 80901 Normal (endogenous coagulation [3]; Ethylene Glycol gallate 50 μM): 88.6 s
Coagulation time Control batch n° 80901 Path (endogenous coagulation [3]; Ethylene Glycol gallate 50 μM): 99.6 s
Coagulation time Plasma (LA) MA 030 (endogenous coagulation [3]; Ethylene Glycol gallate 50 μM): 66.6 s
Coagulation time Plasma def f VIIIc (endogenous coagulation [3]; Ethylene Glycol gallate 50 μM): 44.8 s
Coagulation time Plasmas Heparins Batch 1635 (endogenous coagulation [3]; Ethylene Glycol gallate 50 μM): 73.1 s
Coagulation time Plasmas Heparins Batch 1726 (endogenous coagulation [3]; Ethylene Glycol gallate 50 μM): >140.0 s
Coagulation time Control batch n° 80901 Normal (endogenous coagulation [3]; Ethylene Glycol gallate 75 μM): 46.5 s
Coagulation time Control batch n° 80901 Path (endogenous coagulation [3]; Ethylene Glycol gallate 75 μM): 67.4 s
Coagulation time Plasma (LA) MA 030 (endogenous coagulation [3]; Ethylene Glycol gallate 75 μM): 50.4 s
Coagulation time Plasma def f VIIIc (endogenous coagulation [3]; Ethylene Glycol gallate 75 μM): 38.6 s
Coagulation time Plasmas Heparins Batch 1635 (endogenous coagulation [3]; Ethylene Glycol gallate 75 μM): 48.3 s
Coagulation time Plasmas Heparins Batch 1726 (endogenous coagulation [3]; Ethylene Glycol gallate 75 μM): 86.6 s
Coagulation time Control batch n° 80901 Normal (endogenous coagulation [3]; Ethylene Glycol gallate 100 μM): 38.4 s
Coagulation time Control batch n° 80901 Path (endogenous coagulation [3]; Ethylene Glycol gallate 100 μM): 46.2 s
Coagulation time Plasma (LA) MA 030 (endogenous coagulation [3]; Ethylene Glycol gallate 100 μM): 47.5 s
Coagulation time Plasma def f VIIIc (endogenous coagulation [3]; Ethylene Glycol gallate 100 μM): 38.2 s
Coagulation time Plasmas Heparins Batch 1635 (endogenous coagulation [3]; Ethylene Glycol gallate 100 μM): 48.0 s
Coagulation time Plasmas Heparins Batch 1726 (endogenous coagulation [3]; Ethylene Glycol gallate 100 μM): 80.0 s
Coagulation time Control batch n° 80901 Normal (endogenous coagulation [3]; Ethylene Glycol gallate 200 μM): 35.2 s
Coagulation time Control batch n° 80901 Path (endogenous coagulation [3]; Ethylene Glycol gallate 200 μM): 42.5 s
Coagulation time Plasma (LA) MA 030 (endogenous coagulation [3]; Ethylene Glycol gallate 200 μM): 46.7 s
Coagulation time Plasma def f VIIIc (endogenous coagulation [3]; Ethylene Glycol gallate 200 μM): 37.7 s
Coagulation time Plasmas Heparins Batch 1635 (endogenous coagulation [3]; Ethylene Glycol gallate 200 μM): 48.5 s
Coagulation time Plasmas Heparins Batch 1726 (endogenous coagulation [3]; Ethylene Glycol gallate 200 μM): 75.4 s
Coagulation time Control batch n° 80901 Normal (endogenous coagulation [3]; Ethylene Glycol gallate 300 μM): 34.3 s
Coagulation time Control batch n° 80901 Path (endogenous coagulation [3]; Ethylene Glycol gallate 300 μM): 39.6 s
Coagulation time Plasma (LA) MA 030 (endogenous coagulation [3]; Ethylene Glycol gallate 300 μM): 44.2 s
Coagulation time Plasma def f VIIIc (endogenous coagulation [3]; Ethylene Glycol gallate 300 μM): 37.5 s
Coagulation time Plasmas Heparins Batch 1635 (endogenous coagulation [3]; Ethylene Glycol gallate 300 μM): 47.7 s
Coagulation time Plasmas Heparins Batch 1726 (endogenous coagulation [3]; Ethylene Glycol gallate 300 μM): 73.7 s
Coagulation time Control batch n° 80901 Normal (endogenous coagulation [3]; Ethylene Glycol gallate 400 μM): 32.9 s
Coagulation time Control batch n° 80901 Path (endogenous coagulation [3]; Ethylene Glycol gallate 400 μM): 39.6 s
Coagulation time Plasma (LA) MA 030 (endogenous coagulation [3]; Ethylene Glycol gallate 400 μM): 43.4 s
Coagulation time Plasma def f VIIIc (endogenous coagulation [3]; Ethylene Glycol gallate 400 μM): 37.2 s
Coagulation time Plasmas Heparins Batch 1635 (endogenous coagulation [3]; Ethylene Glycol gallate 400 μM): 47.0 s
Coagulation time Plasmas Heparins Batch 1726 (endogenous coagulation [3]; Ethylene Glycol gallate 400 μM): 75.1 s
Coagulation time Control batch n° 80901 Normal (endogenous coagulation [3]; Ethylene Glycol gallate 500 μM): 32.6 s
Coagulation time Control batch n° 80901 Path (endogenous coagulation [3]; Ethylene Glycol gallate 500 μM): 48.5 s
Coagulation time Plasma (LA) MA 030 (endogenous coagulation [3]; Ethylene Glycol gallate 500 μM): 43.0 s
Coagulation time Plasma def f VIIIc (endogenous coagulation [3]; Ethylene Glycol gallate 500 μM): 37.5 s
Coagulation time Plasmas Heparins Batch 1635 (endogenous coagulation [3]; Ethylene Glycol gallate 500 μM): 47.3 s
Coagulation time Plasmas Heparins Batch 1726 (endogenous coagulation [3]; Ethylene Glycol gallate 500 μM): 76.1 s
Coagulation time Control batch n° 80901 Normal (endogenous coagulation [3]; [5]): 33.4 s
Coagulation time Control batch n° 80901 Path (endogenous coagulation [3]; [5]): 51.5 s
Coagulation time Plasma (LA) MA 030 (endogenous coagulation [3]; [5]): 42.5 s
Coagulation time Plasma def f VIIIc (endogenous coagulation [3]; [5]): 37.1 s
Coagulation time Plasmas Heparins Batch 1635 (endogenous coagulation [3]; [5]): 47.9 s
Coagulation time Plasmas Heparins Batch 1726 (endogenous coagulation [3]; [5]): 76.3 s
Coagulation times compared with the reference reagent, CK-Prest (endogenous coagulation [1]; all plasmas of the table, derivative 100 μM): nearest results to those obtained with the reference reagent
Coagulation time, CCN (endogenous coagulation [1]): 32.7 s
Coagulation time, CCP (endogenous coagulation [1]): 50.5 s
Coagulation time, Heparins Batch 0811 (endogenous coagulation [1]): 112.5 s
Coagulation time, Heparins Batch 1706 (endogenous coagulation [1]): 65.7 s
Coagulation time, Lupus Batch 021 (endogenous coagulation [1]): 45.7 s
Coagulation time, Pool N LIK 800 (endogenous coagulation [1]): 37.4 s
Coagulation time, f VII def 25% (endogenous coagulation [2]): 35.6 s
Activity in an APTT coagulation test (endogenous coagulation [4]): became active

ethylene diamine gallate [H2N—(CH2)n—NH2 n=2]
Coagulation time, CCN (endogenous coagulation [1]): 138.1 s
Coagulation time, CCP (endogenous coagulation [1]): 177.9 s
Coagulation time, Heparins Batch 0811 (endogenous coagulation [1]): >300.0 s
Coagulation time, Heparins Batch 1706 (endogenous coagulation [1]): 228.4 s
Coagulation time, Lupus Batch 021 (endogenous coagulation [1]): 167.6 s
Coagulation time, Pool N LIK 800 (endogenous coagulation [1]): 111.5 s
Coagulation time, f VII def 25% (endogenous coagulation [2]): 113.0 s
